{
  "source": "patent US9399032B2",
  "about": "“Methods and compositions for treating degenerative and ischemic disorders” (The General Hospital Corporation, priority 2009, dated 2016)",
  "key": {"AMPK": {"system": "AMPK", "assay": "Western blot detection of AMPK phosphorylation", "assay_type": "cell-based", "conditions": "C2C12 myotubes, 24 hours of treatment", "experimental": "The ability of meclizine, S-meclizine and R-meclizine to activate AMPK in C2C12 myotubes was also evaluated using Western blot detection of AMPK phosphorylation in C2C12 myotubes following 24 hours of treatment with R-meclizine (R-Mec), S-meclizine (S-Mec) and the racemic mixture (Rac-Mec)."}, "Glutaminase (GLS)": {"system": "Glutaminase (GLS)", "assay": "Western detection of Glutaminase (GLS) protein", "assay_type": "cell-based", "conditions": "Western blot", "experimental": "To explore this hypothesis, activation of glycolysis via hypoxia inducible factor (HIF), a known transcriptional activator of glycolysis, was tested. HIF1-α and HIF2-α stabilization was assessed in HeLa cells by carrying out Western blot detection using anti-HIF1-α antibody (Cell Signaling Cat. No. 3716) and anti-HIF2-α antibody (Novus Biologicals). Protein was extracted from cells pre-treated with either 0.1% DMSO, 50 μM meclizine or 100 μM deferoxamine (Sigma Cat. No. D9533). Western detection of Glutaminase (GLS) was carried out on protein extracts from 293 cells using anti-GLS antibodies (gift from Dr. Javier Marquez, University of […], Spain)."}, "[1]": {"system": "STHdhQ111/111 striatal cells", "assay": "Viability of mutant huntingtin striatal cells after serum withdrawal (CellTiter-Glo)", "assay_type": "cell-based, murine", "experimental": "Wherever indicated, mutant (STHdh^Q111/111) striatal cells were grown in serum free media for ˜24 hours before ATP measurement. Luminescence was measured in DTX880 multimode detector. Multiple concentrations (between 100 μM and 0.5 μM) of rotenone, antimycin, oligomycin, meclizine, hydroxyzine (Spectrum chemical), thiethylperazine (Prestwick), cyproheptadine (Sigma), pyrilamine (Spectrum chemical), tripelennamine (Spectrum chemical), diphenhydramine (Spectrum chemical), clemastine (Prestwick), bromopheniramine (Spectrum chemical), pheniramine (Spectrum chemical), promethazine (MSDiscovery 01500510), atropine (Sigma), and scopolamine (Sigma) were tested for their protective effect on STHdh^Q111/111 cells in serum free media. The dose which conferred maximum protection is shown. Luminescence was measured in DTX880 multimode detector.\nAlthough it is not necessary to understand the mechanism of an invention, it is believed that the observed cell survival may be due to suppressed apoptosis based on caspase 3 and 7 cleavage. Improved cell viability was confirmed by microscopy."}, "[2]": {"system": "C. elegans expressing 128Q huntingtin fragment in touch receptor neurons", "assay_type": "in vivo", "experimental": "Meclizine was also tested in an animal model of Huntington's disease. Transgenic C. elegans touch receptor neurons express an N-terminal fragment of huntingtin (htt) comprising 128 glutamine repeats, as opposed to seventeen glutamine repeats in the wild type protein. These neurons show polyQ-dependent neuronal dysfunction resulting in defective posterior mechanosensation. Parker et al., Nat Genet 37:349 (2005) Animals co-expressing YFP and N-terminal htt fused to CFP in touch receptor neurons were used for drug testing. See, eg., Parker et al., Proc Natl Acad Sci USA 98:13318 (2001). Synchronized L1 larvae, obtained by hypochlorite extraction, were incubated with drugs in 96 wells plates in 50 μl M9 medium with OP-50 bacteria and […] streptomycin, at 20° C. during 3 days as previously described. Three independent assays were performed and a minimum of 100 worms were tested per dose.\nWorms were treated with DMSO or 33 μM meclizine for 3 days. Animals were considered as touch responsive if they reacted after light touch (e.g., by initiating a backward movement). Out of 3 touches, 2 or 3 reactions were regarded as responsive, and 0 or 1 reaction was regarded as unresponsive. Htt aggregation and axonal morphology in PLM neurons were scored using light microscopy as previously described (Parker et al., Proc Natl Acad Sci USA 98:13318 (2001)). Htt aggregation was scored using CFP fluorescence, axonal dystrophy was quantified using YFP fluorescence to detect axonal swelling.\nProtein quantity was normalized using an anti-actin antibody (MP Biochemicals 69100)."}, "[3]": {"system": "UAS-Htt-Q128/elav-GAL4 flies", "assay": "Transgenic Drosophila melanogaster model of Huntington's disease", "assay_type": "in vivo", "conditions": "33 μM, 10 days", "experimental": "Meclizine was also tested in a transgenic insect model of Huntington's disease in which the first 548 amino acids of human Htt (containing 128 glutamines) was expressed in the […] of Drosophila melanogaster. The UAS-Htt-Q0 and UAS-Htt-[…] lines encoding the first 548 amino acids of human Htt containing either 0 or 128 glutamines, respectively (7), were gifts from Troy Littleton. The elav-GAL4 driver was from the Bloomington Stock Center (#8765). The UAS-Htt-[…] line was crossed to elav-GAL4/CyO to obtain […] flies. Equal numbers of newly enclosed UAS-[…] flies were added to vials containing Carolina Biological Instant Fly food that had been freshly made up with water and meclizine or DMSO vehicle at different concentrations (100, 33, 11 or 3 μM). Flies were changed to fresh food and drug every 2 days and were maintained at 25° C. throughout the experiment. Neurodegeneration was assessed using the pseudopupil technique at day 10 by scoring the rhabdomere number/ommatidium from at least 8 animals for each condition; see Jackson et al., Neuron 21:633 (1998). The experiment was performed twice and scoring was conducted in a blinded manner. Western blot analysis using mouse anti-human HD (mAb2216 from Chemicon, Temecula, Calif.) was performed using lysates from UAS-[…] adult flies that had been fed on either meclizine or DMSO at 33 μM for 10 days."}, "[4]": {"system": "Adult rat ventricular cardiomyocytes", "assay": "Simulated ischemia-reperfusion injury in isolated cardiomyocytes", "assay_type": "cell-based", "experimental": "The ability of meclizine to protect isolated cardiomyocytes and isolated hearts from ischemic injury was investigated as follows Adult rat ventricular cardiomyocytes were isolated by endotoxin-free collagenase perfusion, and the simulated ischemia-reperfusion injury was performed as previously described (Wojtovich and Brookes, Basic Res. Cardiol., 104:121-129 (2009)). Control cells were exposed to DMSO for 20 minutes. Test cells were exposed to either vehicle or doses of meclizine for 20 minutes, which was washed out before being subjected to ischemia for 60 minutes followed by reperfusion for 30 minutes under normoxic conditions in normoxic glucose-replete buffer at pH 7.4. Cell viability was assayed by Trypan blue exclusion. VO2 was assessed by isolating mitochondria and measuring both respirating cells and mitochondria using a Clark oxygen electrode (Wojtovich, supra)."}, "MCH58 fibroblasts": {"system": "MCH58 fibroblasts", "assay": "Glucose versus galactose cell growth screen (metabolic state-dependent lethality)", "conditions": "approximately 10 μM compound, 72 hours; log10 fold change of normalized cell number in glucose versus galactose"}},
  "note": "Where a name gives a salt, the structure may show the parent alone.",
  "data": [
    {"smiles": "Cc1cccc(CN2CCN(C(c3ccccc3)c3ccc(Cl)cc3)CC2)c1", "note": "(racemic) [Meclizine, meclizine hydrochloride]", "values": [
      {"measurement": "AMPK activation (phosphorylation)", "setting": "AMPK", "result": "activate AMPK"},
      {"measurement": "GLS protein level", "setting": "Glutaminase (GLS)", "result": "not reduced"},
      {"measurement": "EC50", "setting": "[1]; Mus musculus, STHdhQ111, 24 hours after removal of serum, read-out: EC50 of cell survival (rescue)", "result": "~17.3", "unit": "µM"},
      {"measurement": "protection of STHdhQ111/111 cells after serum withdrawal", "setting": "[1]; serum free media, 24 hours", "result": "conferred the most protection"},
      {"measurement": "PolyQ protein aggregation", "setting": "[2]; 33.33 μM", "result": "no effects"},
      {"measurement": "transgenic protein expression (worms)", "setting": "[2]; 33.33 μM", "result": "no changes were observed"},
      {"measurement": "axonal swelling", "setting": "[2]; 33.33 μM, PLM neurons", "result": "reduced"},
      {"measurement": "sensory response to tail poke", "setting": "[2]; mutant PolyQ animals, 3 days", "result": "improved the sensory response to tail poke in a dose dependent manner"},
      {"measurement": "concentration of optimal response", "setting": "[2]; touch response", "result": 33.33, "unit": "µM"},
      {"measurement": "transgenic protein expression (flies)", "setting": "[3]", "result": "did not influence"},
      {"measurement": "rhabdomere loss", "setting": "[3]; compared to DMSO", "result": "did protect against rhabdomere loss"},
      {"measurement": "protection against I/R at high concentrations", "setting": "[4]; 50 μM and 100 μM", "result": "not observed"},
      {"measurement": "protection of cardiomyocytes against I/R (cell viability, Trypan blue)", "setting": "[4]; 60 minutes ischemia, 30 minutes reperfusion", "result": "protected cardiomyocytes against I/R at various concentrations"},
      {"measurement": "VO2 in cardiomyocytes", "setting": "[4]; compared to DMSO treated cells", "result": "decrease in VO2"},
      {"measurement": "Sglu/gal (log10 fold change) Score", "setting": "MCH58 fibroblasts", "result": 0.16}
    ]}
  ]
}
